The text below walks through data of ChEMBL document CHEMBL5150008, “Fragment-Guided Discovery of Pyrazole Carboxylic Acid Inhibitors of the Kelch-like ECH-Associated Protein 1: Nuclear Factor Erythroid 2 Related Factor 2 (KEAP1:NRF2) Protein-Protein Interaction” (J Med Chem, 2021).

Usually chromatographic logD stands for a lipophilicity value derived from retention on a column. For orientation: inhibition means the relative decrease from the control value, in per cent.

A short description of data set [1]: Permeability in artificial phospholipid membrane by AMPA based HPLC/UV analysis. In kind it is ADME, cell membranes. The note with it: not told; read-out: permeability.
A short description of data set [2]: Lipophilicity, logD of compound at pH 2 to 10.5 by reversed-phase HPLC. In kind it is physicochemical.
Data set [3] addresses Keap1/Nrf2 (Homo sapiens, UniProt Q14145). Kind of data set: (§1) Inhibition of 5'-TAMRA tagged NRF2 (unknown origin)/human recombinant N-terminal Avi tagged KEAP-1 (321 to 609 residues) expressed in Baculovirus system infected in Sf9 cells protein-protein interaction by fluorescence polarisation assay.
Data set [4] has as its target T1, Keap1/Nrf2 (Homo sapiens, UniProt Q16236+Q14145). Description: Inhibition of 5'-TAMRA tagged NRF2 (unknown origin)/human recombinant N-terminal Avi tagged KEAP-1 (321 to 609 residues) expressed in Baculovirus system infected in Sf9 cells protein-protein interaction at 0.03 uM by fluorescence polarisation assay relative to control. For orientation: In fluorescence polarisation assays a small probe gives low polarisation when free and higher when bound to something large.

In data set [5] the target is T1, Keap1/Nrf2. Kind of data set: Inhibition of 5'-TAMRA tagged NRF2 (unknown origin)/human recombinant N-terminal Avi tagged KEAP-1 (321 to 609 residues) expressed in Baculovirus system infected in Sf9 cells protein-protein interaction at 0.015 uM by fluorescence polarisation assay relative to control.
Target sequence in this assay (Q14145 whole entry, looked up, the tested form may be a part): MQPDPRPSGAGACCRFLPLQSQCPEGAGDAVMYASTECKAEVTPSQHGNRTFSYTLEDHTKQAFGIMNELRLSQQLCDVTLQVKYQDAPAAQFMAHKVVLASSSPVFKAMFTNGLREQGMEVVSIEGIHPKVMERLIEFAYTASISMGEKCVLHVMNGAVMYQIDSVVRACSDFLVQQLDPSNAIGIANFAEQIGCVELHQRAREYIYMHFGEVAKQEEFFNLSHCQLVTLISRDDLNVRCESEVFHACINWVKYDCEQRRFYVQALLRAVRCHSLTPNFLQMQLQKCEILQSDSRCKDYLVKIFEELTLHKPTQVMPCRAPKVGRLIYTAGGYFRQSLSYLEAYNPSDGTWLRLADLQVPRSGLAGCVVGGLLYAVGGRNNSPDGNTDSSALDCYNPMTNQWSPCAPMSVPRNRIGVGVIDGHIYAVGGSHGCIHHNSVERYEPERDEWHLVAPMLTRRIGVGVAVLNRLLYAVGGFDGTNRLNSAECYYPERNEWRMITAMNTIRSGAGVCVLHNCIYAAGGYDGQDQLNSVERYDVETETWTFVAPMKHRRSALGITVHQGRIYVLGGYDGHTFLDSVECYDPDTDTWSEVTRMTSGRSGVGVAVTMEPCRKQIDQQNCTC
Target sequence in this assay (Q16236 whole entry, looked up, the tested form may be a part): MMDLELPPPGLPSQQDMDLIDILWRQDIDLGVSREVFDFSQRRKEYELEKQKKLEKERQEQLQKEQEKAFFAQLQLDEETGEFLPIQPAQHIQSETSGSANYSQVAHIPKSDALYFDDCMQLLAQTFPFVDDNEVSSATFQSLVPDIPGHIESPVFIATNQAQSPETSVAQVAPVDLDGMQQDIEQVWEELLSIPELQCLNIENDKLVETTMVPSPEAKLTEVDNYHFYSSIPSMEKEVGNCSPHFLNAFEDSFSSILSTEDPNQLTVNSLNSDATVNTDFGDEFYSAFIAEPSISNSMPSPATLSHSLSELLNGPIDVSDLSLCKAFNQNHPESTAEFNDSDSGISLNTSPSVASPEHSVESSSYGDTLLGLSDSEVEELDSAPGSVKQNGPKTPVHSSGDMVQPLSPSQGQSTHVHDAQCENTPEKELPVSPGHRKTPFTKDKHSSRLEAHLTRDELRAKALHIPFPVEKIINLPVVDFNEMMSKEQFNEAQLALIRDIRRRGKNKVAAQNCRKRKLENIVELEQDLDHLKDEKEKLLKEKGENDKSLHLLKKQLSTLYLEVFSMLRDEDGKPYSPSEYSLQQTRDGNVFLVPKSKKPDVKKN
Data set [6] addresses T1, Keap1/Nrf2. The data set is described as §1.
Target sequence in this assay (Q14145 whole entry, looked up, the tested form may be a part): as the sequence (Q14145 whole entry, looked up, the tested form may be a part) above
Target sequence in this assay (Q16236 whole entry, looked up, the tested form may be a part): as the sequence (Q16236 whole entry, looked up, the tested form may be a part) above
For data set [7], the target named is T1, Keap1/Nrf2. Description: Inhibition of 5'-TAMRA tagged NRF2 (unknown origin)/human recombinant N-terminal Avi tagged KEAP-1 (321 to 609 residues) expressed in Baculovirus system infected in Sf9 cells protein-protein interaction at 0.1 uM by fluorescence polarisation assay relative to control.
Target sequence in this assay (Q14145 whole entry, looked up, the tested form may be a part): as the sequence (Q14145 whole entry, looked up, the tested form may be a part) above
Target sequence in this assay (Q16236 whole entry, looked up, the tested form may be a part): as the sequence (Q16236 whole entry, looked up, the tested form may be a part) above
For data set [8], the target named is T1, Keap1/Nrf2. Kind of data set: Inhibition of 5'-TAMRA tagged NRF2 (unknown origin)/human recombinant N-terminal Avi tagged KEAP-1 (321 to 609 residues) expressed in Baculovirus system infected in Sf9 cells protein-protein interaction at 0.05 uM by fluorescence polarisation assay relative to control.
Target sequence in this assay (Q14145 whole entry, looked up, the tested form may be a part): as the sequence (Q14145 whole entry, looked up, the tested form may be a part) above
Target sequence in this assay (Q16236 whole entry, looked up, the tested form may be a part): as the sequence (Q16236 whole entry, looked up, the tested form may be a part) above

Keap1/Nrf2 (Homo sapiens, UniProt Q14145), sequence (Q16236 whole entry, the tested form may be a part): as the sequence (Q16236 whole entry, looked up, the tested form may be a part) above
Keap1/Nrf2 (Homo sapiens, UniProt Q14145), sequence (Q14145 whole entry, the tested form may be a part): as the sequence (Q14145 whole entry, looked up, the tested form may be a part) above

Regarding `O=C(O)c1cnn(-c2cccc([C@@H]3CCC[C@H](C(=O)N4CCCCC4)C3)c2)c1C1CC1` (racemic), in data set [1], the Papp was under 0.3 ×10⁻⁶ cm/s. In addition, the chromatographic logD in data set [2] came out at 2.7. Further, in data set [3] (read-out: IC50), the IC50 was 0.3 µM.
On to `CN(C)C(=O)c1cccc(-c2cccc(-n3ncc(C(=O)O)c3C3CCCC3)c2)c1`, for which the IC50 in data set [3] (read-out: IC50) was 1 µM.
On to `CN(C)C(=O)c1cccc(-c2cccc(-n3ncc(C(=O)O)c3C3CC3)c2)c1F`, for which the Papp in data set [1] is under 0.3 ×10⁻⁶ cm/s. In data set [2], this compound showed a chromatographic logD of 1.3. In addition, the IC50 in data set [3] (read-out: IC50) was over 10 µM; in data set [3] (read-out: pIC50 (converted)), under 1 µM.
With `CCC[C@H]1CCCCN1C(=O)c1cccc(-c2cccc(-n3ncc(C(=O)O)c3C3CC3)c2)c1F`, the Papp in data set [1] was 6.3 ×10⁻⁶ cm/s. In data set [2], this compound registered a chromatographic logD of 3.5. Moreover, the IC50 in data set [3] (read-out: IC50) came to 0.06 µM.
For the compound `CN(C)C(=O)c1cccc(-c2cccc(-n3ncc(C(=O)O)c3C(F)(F)F)c2)c1`, in data set [3] (read-out: IC50), the IC50 amounted to 0.48 µM.
For `O=C(O)c1cnn(-c2cccc(-c3cccc(C(=O)N(CC4CC4)CC4CC4)c3F)c2)c1C1CC1`, the Papp in data set [1] came out at 1.6 ×10⁻⁶ cm/s. In addition, the chromatographic logD in data set [2] stood at 3.5. Further, the inhibition in data set [4] was 46%.
As for `CCC[C@@H]1CCCCN1C(=O)c1cccc(-c2cccc(-n3ncc(C(=O)O)c3C3CC3)c2)c1F`, the Papp in data set [1] worked out at 2.7 ×10⁻⁶ cm/s. Besides, the inhibition in data set [5] is 52%. Besides, the chromatographic logD in data set [2] worked out at 3.5.
On to `CN(C)C(=O)c1cccc(-c2cccc(-n3ncc(C(=O)O)c3C3CCCCC3)c2)c1`, for which the IC50 in data set [3] (read-out: IC50) is 1.8 µM.
Still for that read-out and setting: under `O=C(O)c1cnn(-c2cccc(-c3cccc(CNS(=O)(=O)c4ccccc4)c3)c2)c1C(F)(F)F` stands 45 µM.
As to `CCC[C@@H]1CCCCN1C(=O)c1cccc(-c2cccc(-n3ncc(C(=O)O)c3[C@@H]3C[C@H]3c3cn(C)nn3)c2)c1`, the Papp in data set [1] is 1.7 ×10⁻⁶ cm/s. This compound had a chromatographic logD in data set [2] of 3. In data set [6], the IC50 came to 0.56 µM.
As for `CCCC1CCCCN1C(=O)c1cccc(-c2cccc(-n3ncc(C(=O)O)c3C3CC3c3cccnc3)c2)c1` (mixture of isomers), the Papp in data set [1] worked out at 13 ×10⁻⁶ cm/s. This compound also gave a chromatographic logD in data set [2] of 3.9. Also, the IC50 in data set [3] (read-out: IC50) worked out at 0.221 µM.
Turning to `CCC[C@@H]1CCCCN1C(=O)c1cccc(-c2cccc(-n3ncc(C(=O)O)c3[C@H]3C[C@@H]3c3cn(C)nn3)c2)c1`, in data set [1], the Papp came out at 1.6 ×10⁻⁶ cm/s. Also, in data set [5], the inhibition was found to be 98%. The chromatographic logD in data set [2] was 3.
`O=C(O)c1cnn(-c2cccc(NS(=O)(=O)c3ccccc3)c2)c1C(F)(F)F`: in data set [3] (read-out: IC50), the IC50 turned out to be 4.6 µM.
The same measure, in the same setting: for `CN(C)C(=O)c1ccnc(-c2cccc(-n3ncc(C(=O)O)c3C(F)(F)F)c2)c1` the value was 7.5 µM; for `CN(C)C(=O)c1cccc(-c2cccc(-n3ncc(C(=O)O)c3C(F)(F)F)n2)c1`, 1 µM.
Regarding `O=C(O)c1cnn(-c2ccccc2)c1C(F)(F)F`, the IC50 in data set [3] (read-out: IC50) was over 300 µM.
With `O=C(O)c1cnn(-c2ccccn2)c1C(F)(F)F`, the IC50 in data set [3] (read-out: IC50) is over 1000 µM.
In the case of `CCCC1CCCCN1C(=O)c1cccc(-c2cccc(-n3ncc(C(=O)O)c3C3CC3c3ccccn3)c2)c1` (mixture of isomers), the Papp in data set [1] came out at 4 ×10⁻⁶ cm/s. Further, in data set [2], the chromatographic logD is 3.1. Moreover, the inhibition in data set [4] is on record as 42%.
Consider `CC(=O)N1CCC(c2c(C(=O)O)cnn2-c2cccc(-c3cccc(C(=O)N(C)C)c3)c2)CC1`, for which the IC50 in data set [3] (read-out: IC50) was 3.5 µM.
For `O=C(O)c1cnn(-c2cccc(-c3cccc(C(=O)N4CCCCC4)c3F)c2)c1C1CC1`, in data set [1], the Papp was under 0.3 ×10⁻⁶ cm/s. Further, the chromatographic logD in data set [2] came to 2.3. In addition, the IC50 in data set [3] (read-out: IC50) is 0.12 µM; in data set [3] (read-out: pIC50 (converted)), under 1 µM.
On to `CCCC1CCCCN1C(=O)C1CCCC(c2cccc(-n3ncc(C(=O)O)c3C3CC3)c2)C1` (mixture of isomers), for which the Papp in data set [1] turned out to be 1.1 ×10⁻⁶ cm/s. The compound further registered a chromatographic logD in data set [2] of 4.1. Besides, in data set [3] (read-out: IC50), the IC50 was 0.23 µM.
`CN(C)C(=O)c1cccc(-c2cccc(-n3ncc(C(=O)O)c3C(C)(C)C)n2)c1`: the IC50 in data set [3] (read-out: IC50) amounted to 10 µM.
Regarding `CN(C)C(=O)[C@H]1CCC[C@@H](c2cccc(-n3ncc(C(=O)O)c3C3CC3)c2)C1` (racemic), the Papp in data set [1] was under 0.3 ×10⁻⁶ cm/s. For the same compound, the chromatographic logD in data set [2] was found to be 1.7. Besides, the results for the IC50 in data set [3] (read-out: IC50) and in data set [3] (read-out: pIC50 (converted)) were 0.24 µM and under 1 µM, respectively.
As for `CCCC1CCCCN1C(=O)c1cccc(-c2cccc(-n3ncc(C(=O)O)c3C3CC3c3cn(C)nn3)c2)c1` (mixture of isomers), the Papp in data set [1] was found to be 3.7 ×10⁻⁶ cm/s. In data set [5], the inhibition was 84%. Moreover, in data set [2], the chromatographic logD worked out at 2.9.
With `CN(CC1CC1)C(=O)c1cccc(-c2cccc(-n3ncc(C(=O)O)c3C3CC3)c2)c1F`, in data set [1], the Papp worked out at 0.3 ×10⁻⁶ cm/s. Further, in data set [7], the inhibition was 50%. Also, the chromatographic logD in data set [2] came out at 2.2. Besides, in data set [3] (read-out: pIC50 (converted)), the IC50 was under 1 µM.
For `CN(C)C(=O)c1cccc(-c2cccc(-n3ncc(C(=O)O)c3-c3cccnc3)c2)c1`, the IC50 in data set [3] (read-out: IC50) was found to be 2 µM.
Consider `CCCCC1CCCN1C(=O)C1CCCC(c2cccc(-n3ncc(C(=O)O)c3C3CC3)c2)C1` (mixture of isomers), for which the Papp in data set [1] was 2.7 ×10⁻⁶ cm/s. Further, the chromatographic logD in data set [2] was determined as 4.4. Also, the inhibition in data set [4] came out at 64%.
On to `CCCC1CCCCN1C(=O)c1cccc(-c2cccc(-n3ncc(C(=O)O)c3C3CC3c3cccnn3)c2)c1` (mixture of isomers), for which the Papp in data set [1] came to 1.7 ×10⁻⁶ cm/s. Moreover, the inhibition in data set [5] came out at 50%. In data set [2], this compound had a chromatographic logD of 2.9.
On to `CN(C)C(=O)c1cccc(-c2cccc(-n3ncc(C(=O)O)c3C3CC3c3cn(C)nn3)c2)c1` (racemic), for which, in data set [1], the Papp was under 0.3 ×10⁻⁶ cm/s. The chromatographic logD in data set [2] was 0.8. Moreover, the IC50 is 0.041 µM in data set [3] (read-out: IC50) and under 1 µM in data set [3] (read-out: pIC50 (converted)). The inhibition in data set [4] came to 53%.
`CCCC[C@@H]1CCCN1C(=O)[C@H]1CCC[C@@H](c2cccc(-n3ncc(C(=O)O)c3C3CC3)c2)C1`: the Papp in data set [1] stood at 1.6 ×10⁻⁶ cm/s. Further, the inhibition in data set [5] came to 81%. Moreover, the chromatographic logD in data set [2] amounted to 4.3.
As for `CC(C)Oc1cccc(-c2cccc(-n3ncc(C(=O)O)c3C(F)(F)F)n2)c1`, in data set [3] (read-out: IC50), the IC50 was 8.5 µM.
Regarding `CN(C)C(=O)c1cncc(-c2cccc(-n3ncc(C(=O)O)c3C(F)(F)F)c2)c1`, the IC50 in data set [3] (read-out: IC50) worked out at 3.7 µM.
Regarding `O=C(O)c1cnn(-c2cccc(-c3cccc(C(=O)N4CCCC5(CCCC5)C4)c3F)c2)c1C1CC1`, the Papp in data set [1] turned out to be 1.2 ×10⁻⁶ cm/s. Besides, the inhibition in data set [5] is 50%. Also, the chromatographic logD in data set [2] was 3.7.
`CCCC1COCCN1C(=O)c1cccc(-c2cccc(-n3ncc(C(=O)O)c3C3CC3)c2)c1F` (stereo not given): the Papp in data set [1] was 1.1 ×10⁻⁶ cm/s. This compound displayed a chromatographic logD in data set [2] of 2.5. For the same compound, the inhibition in data set [8] was determined as 72%; in data set [4], 60%.
`CN(C)C(=O)c1cccc(-c2cccc(-n3ncc(C(=O)O)c3C3CC3)c2)c1`: in data set [1], the Papp was under 0.3 ×10⁻⁶ cm/s. Further, the chromatographic logD in data set [2] is 1.4. Also, the IC50 is 0.37 µM in data set [3] (read-out: IC50) and under 1 µM in data set [3] (read-out: pIC50 (converted)).
